Results: ChEMBL document CHEMBL1151374, “Plant anticancer agents. XIX Constituents of Aquilaria malaccensis” (1981)
In brackets after ≈: the same amount, converted by molar mass. Activity calls are given as the source filed them. The rule behind the calls is not given here.

Key:
[1] = test system: P388; assay: Cytotoxicity against mouse P388 cells in in vitro assay; format: functional; details: read-out: ED50 (the source's name)
[2] = test system: P388; assay: Cytotoxicity against mouse P388 cells in in vivo assay; format: functional, organism-based

Compound | EC50 [1] | Activity [2]
CCC/C=C/C=C/C=C/C(=O)O[C@@H]1[C@@H](C)[C@@]2(O)[C@@H](C=C(CO)C[C@]3(O)C(=O)C(C)=C[C@@H]23)[C@@H]2C(C)(C)[C@]12OC(C)=O | 0.0022 µg/mL (≈ 0.00397 µM) | 
CCCCCCCCCCCCCCCCCCCCCC(=O)OCC(COC(=O)CCCCCCCCCCCCCCCCCCCCC)OC(=O)/C=C/c1ccc(O)c(OC)c1 | 0.8 µg/mL (≈ 0.876 µM) | inactive
